According to PubChem BioAssay AID1259407 (Chemical Carcinogenesis Research Information System (CCRIS), 2018):
Active and inactive are the calls of the source. No rule for the calls is given here.

System: CCRIS mutagenicity, Ames/micronucleus/aberration tests
Assay: CCRIS mutagenicity studies
[1] = Test System: AMES SALMONELLA TYPHIMURIUM, Strain/Indicator: TA100, Metabolic Activation: NONE, Method: PREINCUBATION

CC(C)O
mutagenic call (Test System: AMES SALMONELLA TYPHIMURIUM, Strain/Indicator: TA97, Metabolic Activation: HAMSTER, LIVER, S-9, AROCLOR 1254 (10 OR 30%), Method: PREINCUBATION): inactive; negative
mutagenic call (Test System: AMES SALMONELLA TYPHIMURIUM, Strain/Indicator: TA97, Metabolic Activation: NONE, Method: PREINCUBATION): inactive; negative
mutagenic call (Test System: AMES SALMONELLA TYPHIMURIUM, Strain/Indicator: TA97, Metabolic Activation: RAT, LIVER, S-9, AROCLOR 1254 (10 OR 30%), Method: PREINCUBATION): inactive; negative
mutagenic call (Test System: AMES SALMONELLA TYPHIMURIUM, Strain/Indicator: TA98, Metabolic Activation: HAMSTER, LIVER, S-9, AROCLOR 1254 (10 OR 30%), Method: PREINCUBATION): inactive; negative
mutagenic call (Test System: AMES SALMONELLA TYPHIMURIUM, Strain/Indicator: TA98, Metabolic Activation: NONE, Method: PREINCUBATION): inactive; negative
mutagenic call (Test System: AMES SALMONELLA TYPHIMURIUM, Strain/Indicator: TA98, Metabolic Activation: RAT, LIVER, S-9, AROCLOR 1254 (10 OR 30%), Method: PREINCUBATION): inactive; negative
mutagenic call (Test System: AMES SALMONELLA TYPHIMURIUM, Strain/Indicator: TA98, Metabolic Activation: RAT, LIVER, S-9, KC 500, Method: PREINCUBATION): inactive; negative
mutagenic call (Test System: AMES SALMONELLA TYPHIMURIUM, Strain/Indicator: TA98, Metabolic Activation: RAT, LIVER, S-9, PHENOBARBITAL AND BETA-NAPHTHOFLAVONE, Method: PREINCUBATION): inactive; negative
mutagenic call (Test System: AMES SALMONELLA TYPHIMURIUM, Strain/Indicator: TA100, Metabolic Activation: HAMSTER, LIVER, S-9, AROCLOR 1254 (10 OR 30%), Method: PREINCUBATION): inactive; negative
mutagenic call [1]: inactive; negative
mutagenic call (Test System: AMES SALMONELLA TYPHIMURIUM, Strain/Indicator: TA100, Metabolic Activation: RAT, LIVER, S-9, AROCLOR 1254 (10 OR 30%), Method: PREINCUBATION): inactive; negative
mutagenic call (Test System: AMES SALMONELLA TYPHIMURIUM, Strain/Indicator: TA100, Metabolic Activation: RAT, LIVER, S-9, KC 500, Method: PREINCUBATION): inactive; negative
mutagenic call (Test System: AMES SALMONELLA TYPHIMURIUM, Strain/Indicator: TA100, Metabolic Activation: RAT, LIVER, S-9, PHENOBARBITAL AND BETA-NAPHTHOFLAVONE, Method: PREINCUBATION): inactive; negative
mutagenic call (Test System: AMES SALMONELLA TYPHIMURIUM, Strain/Indicator: TA102, Metabolic Activation: NONE, Method: PREINCUBATION): inactive; negative
mutagenic call (Test System: AMES SALMONELLA TYPHIMURIUM, Strain/Indicator: TA102, Metabolic Activation: RAT, LIVER, S-9, PHENOBARBITAL AND BETA-NAPHTHOFLAVONE, Method: PREINCUBATION): inactive; negative
mutagenic call (Test System: AMES SALMONELLA TYPHIMURIUM, Strain/Indicator: TA104, Metabolic Activation: NONE, Method: PREINCUBATION): inactive; negative
mutagenic call (Test System: AMES SALMONELLA TYPHIMURIUM, Strain/Indicator: TA104, Metabolic Activation: RAT, LIVER, S-9, PHENOBARBITAL AND BETA-NAPHTHOFLAVONE, Method: PREINCUBATION): inactive; negative
mutagenic call (Test System: AMES SALMONELLA TYPHIMURIUM, Strain/Indicator: TA1535, Metabolic Activation: HAMSTER, LIVER, S-9, AROCLOR 1254 (10 OR 30%), Method: PREINCUBATION): inactive; negative
mutagenic call (Test System: AMES SALMONELLA TYPHIMURIUM, Strain/Indicator: TA1535, Metabolic Activation: NONE, Method: PREINCUBATION): inactive; negative
mutagenic call (Test System: AMES SALMONELLA TYPHIMURIUM, Strain/Indicator: TA1535, Metabolic Activation: RAT, LIVER, S-9, AROCLOR 1254 (10 OR 30%), Method: PREINCUBATION): inactive; negative
mutagenic call (Test System: AMES SALMONELLA TYPHIMURIUM, Strain/Indicator: TA1535, Metabolic Activation: RAT, LIVER, S-9, KC 500, Method: PREINCUBATION): inactive; negative
mutagenic call (Test System: AMES SALMONELLA TYPHIMURIUM, Strain/Indicator: TA1535, Metabolic Activation: RAT, LIVER, S-9, PHENOBARBITAL AND BETA-NAPHTHOFLAVONE, Method: PREINCUBATION): inactive; negative
mutagenic call (Test System: AMES SALMONELLA TYPHIMURIUM, Strain/Indicator: TA1537, Metabolic Activation: HAMSTER, LIVER, S-9, AROCLOR 1254 (30%), Method: PREINCUBATION): inactive; negative
mutagenic call (Test System: AMES SALMONELLA TYPHIMURIUM, Strain/Indicator: TA1537, Metabolic Activation: NONE, Method: PREINCUBATION): inactive; negative
mutagenic call (Test System: AMES SALMONELLA TYPHIMURIUM, Strain/Indicator: TA1537, Metabolic Activation: RAT, LIVER, S-9, AROCLOR 1254 (30%), Method: PREINCUBATION): inactive; negative
mutagenic call (Test System: AMES SALMONELLA TYPHIMURIUM, Strain/Indicator: TA1537, Metabolic Activation: RAT, LIVER, S-9, KC 500, Method: PREINCUBATION): inactive; negative
mutagenic call (Test System: AMES SALMONELLA TYPHIMURIUM, Strain/Indicator: TA1537, Metabolic Activation: RAT, LIVER, S-9, PHENOBARBITAL AND BETA-NAPHTHOFLAVONE, Method: PREINCUBATION): inactive; negative
mutagenic call (Test System: AMES SALMONELLA TYPHIMURIUM, Strain/Indicator: TA1538, Metabolic Activation: NONE, Method: PREINCUBATION): inactive; negative
mutagenic call (Test System: AMES SALMONELLA TYPHIMURIUM, Strain/Indicator: TA1538, Metabolic Activation: RAT, LIVER, S-9, KC 500, Method: PREINCUBATION): inactive; negative
mutagenic call (Test System: CHINESE HAMSTER OVARY, Strain/Indicator: CHO-K1-BH4 (HGPRT), Metabolic Activation: NONE): inactive; negative
mutagenic call (Test System: CHINESE HAMSTER OVARY, Strain/Indicator: CHO-K1-BH4 (HGPRT), Metabolic Activation: RAT, LIVER, S-9, AROCLOR 1254): inactive; negative
mutagenic call (Test System: E. COLI, Strain/Indicator: WP2UVRA/PKM101, Metabolic Activation: NONE, Method: PREINCUBATION): inactive; negative
mutagenic call (Test System: E. COLI, Strain/Indicator: WP2UVRA/PKM101, Metabolic Activation: RAT, LIVER, S-9, PHENOBARBITAL AND BETA-NAPHTHOFLAVONE, Method: PREINCUBATION): inactive; negative
mutagenic call (Test System: E. COLI, Strain/Indicator: WP2 UVRA, Metabolic Activation: NONE, Method: PREINCUBATION): inactive; negative
mutagenic call (Test System: E. COLI, Strain/Indicator: WP2UVRA, Metabolic Activation: NONE, Method: PREINCUBATION): inactive; negative
mutagenic call (Test System: E. COLI, Strain/Indicator: WP2 UVRA, Metabolic Activation: RAT, LIVER, S-9, KC 500, Method: PREINCUBATION): inactive; negative
mutagenic call (Test System: E. COLI, Strain/Indicator: WP2UVRA, Metabolic Activation: RAT, LIVER, S-9, PHENOBARBITAL AND BETA-NAPHTHOFLAVONE, Method: PREINCUBATION): inactive; negative

CC1(c2ccccc2)CO1 (stereo unspecified)
mutagenic call [1]: active; positive

C[C@@]12CCc3occc3[C@H]1CC[C@@]13C[C@@H](CC[C@H]12)[C@@](O)(CO)C3
mutagenic call (Test System: AMES SALMONELLA TYPHIMURIUM, Strain/Indicator: TM677, Metabolic Activation: NONE, Method: PREINCUBATION): inactive; negative
mutagenic call (Test System: AMES SALMONELLA TYPHIMURIUM, Strain/Indicator: TM677, Metabolic Activation: RAT, LIVER, S-9, AROCLOR 1254, Method: PREINCUBATION): inactive; negative

CCCCCC(C)[N+](=O)[O-] (stereo unspecified)
mutagenic call (Test System: UDS RAT HEPATOCYTES, Strain/Indicator: THY INCORP, Metabolic Activation: NONE): active; positive
